# From patent US20150038545A1, “HYDROXYPHENYL PYRROLE COMPOUNDS CONTAINING AN HYDROXAMIC ACID AS HDAC INHIBITORS AND MEDICINAL APPLICATIONS THEREOF” (UNIVERSIDAD DEL PAÍS VASCO, priority 2011, published 2015)
# Columns and labels:
# Calu-6 = assay: Cancer cell growth inhibition (CellTiter-Glo), Calu-6; type: cell-based, Human; settings: Homo sapiens; Lung Cancer, Calu-6, 72 h treatment
# Experimental: (§1) Cell culture-based assays were used to evaluate the ability of compounds of the invention to inhibit cancer cell growth.
# (§2) Cells were obtained from the American Type Culture Collection (ATCC). Cells were cultured at 37° C. with 5% CO2 in the appropriate growth medium (see table below), and harvested respectively during the logarithmic growth period and counted with hemocytometer. The cell viability was examined by trypan blue exclusion. Cell concentrations were adjusted to 5.56×10^4 cells/ml with respective medium.
# (§3) Stock solutions of test compounds and positive drugs Doxorubicin (Zhejiang, Haizheng, China), Cisplatin (Nanjing Zhiyao, China) and Mitomycin (Zhejiang, Haizheng, China) were prepared in dimethyl sulphoxide (DMSO) or PBS at 20 mM.
# (§4) In order to determine the IC50 for each compound, experiments were carried out in 96-well plates and the cell lines seeded at a density of 5,000 cells/well. […] All treatments were performed in triplicate. 10 μl of drug solution was added to each well and incubated for 72 hours. At the end of the incubation, 100 μl of the CellTiter-Glo Reagent were added to each well and the contents were mixed for 2 munites on an orbital shaker to induce cell lysis. The plate was incubated at room temperature for 10 minutes to stabilize luminiscent signal, and luminiscent was recorded. […] In order to calculate IC50 values, dose-responsive curves were fitted using nonlinear regression model with a sigmoidal dose response.
# U-87MG = assay: Cancer cell growth inhibition (CellTiter-Glo), U-87MG; type: cell-based, Human; settings: Homo sapiens, Glioblastoma, 72 h treatment
# Experimental: as §1, §2, §3, §4
# MDA-MB-231 = assay: Cancer cell growth inhibition (CellTiter-Glo), MDA-MB-231; type: cell-based; settings: Homo sapiens; Breast Cancer, MDA-MB-231, 72 h treatment
# Experimental: as §1, §2, §3, §4
# SK-HEP-1 = assay: Cancer cell growth inhibition (CellTiter-Glo), SK-HEP-1; type: cell-based; settings: Homo sapiens, SK-HEP1; Liver Cancer, SK-HEP-1, 72 h treatment
# Experimental: as §1, §2, §3, §4
# A549 = assay: Cancer cell growth inhibition (CellTiter-Glo), A549; type: cell-based, Human; settings: Homo sapiens; Lung Cancer, A549, 72 h treatment
# Experimental: as §1, §2, §3, §4
# PANC-1 = assay: Cancer cell growth inhibition (CellTiter-Glo), PANC-1; type: cell-based, Human; settings: Homo sapiens; Pancreatic Cancer, PANC-1, 72 h treatment
# Experimental: as §1, §2, §3, §4
# HT-29 = assay: Cancer cell growth inhibition (CellTiter-Glo), HT-29; type: cell-based, Human; settings: Homo sapiens; Colorectal Cancer, HT-29, 72 h treatment
# Experimental: as §1, §2, §3, §4
# BGC-823 = assay: Cancer cell growth inhibition (CellTiter-Glo), BGC-823; type: cell-based, Human; settings: Homo sapiens; Gastric Cancer, BGC-823, 72 h treatment
# Experimental: as §1, §2, §3, §4
# SK-OV-3 = assay: Cancer cell growth inhibition (CellTiter-Glo), SK-OV-3; type: cell-based, Human; settings: Homo sapiens; Ovarian Cancer, SK-OV-3, 72 h treatment
# Experimental: as §1, §2, §3, §4
# KB = assay: Cancer cell growth inhibition (CellTiter-Glo), KB; type: cell-based, Human; settings: Homo sapiens, Oral Cancer, 72 h treatment
# Experimental: as §1, §2, §3, §4
# 786-O = assay: Cancer cell growth inhibition (CellTiter-Glo), 786-O; type: cell-based, Human; settings: Homo sapiens, 786-0, Kidney Cancer, 72 h treatment
# Experimental: as §1, §2, §3, §4
# LoVo = assay: Cancer cell growth inhibition (CellTiter-Glo), LoVo; type: cell-based, Human; settings: Homo sapiens, Colorectal Cancer, 72 h treatment
# Experimental: as §1, §2, §3, §4
# SW480 = assay: Cancer cell growth inhibition (CellTiter-Glo), SW480; type: cell-based, Human; settings: Homo sapiens; Colorectal Cancer, SW480, 72 h treatment
# Experimental: as §1, §2, §3, §4
# CNE2 = assay: Cancer cell growth inhibition (CellTiter-Glo), CNE2; type: cell-based, Human; settings: Homo sapiens, CNE-2; Nasopharyngeal, CNE2, 72 h treatment
# Experimental: as §1, §2, §3, §4
# MCF-7 = assay: Cancer cell growth inhibition (CellTiter-Glo), MCF-7; type: cell-based, Human; settings: Homo sapiens, MCF7; Breast Cancer, MCF-7, 72 h treatment
# Experimental: as §1, §2, §3, §4
# A375 = assay: Cancer cell growth inhibition (CellTiter-Glo), A375; type: cell-based, Human; settings: Homo sapiens, A-375; Melanoma, A375, 72 h treatment
# Experimental: as §1, §2, §3, §4
# DLD-1 = assay: Cancer cell growth inhibition (CellTiter-Glo), DLD-1; type: cell-based, Human; settings: Homo sapiens; Colorectal Cancer, DLD-1, 72 h treatment
# Experimental: as §1, §2, §3, §4
# SK-MES-1 = assay: Cancer cell growth inhibition (CellTiter-Glo), SK-MES-1; type: cell-based, Human; settings: Homo sapiens; Lung Cancer, SK-MES-1, 72 h treatment
# Experimental: as §1, §2, §3, §4
IC50 (Calu-6),IC50 (U-87MG),IC50 (MDA-MB-231),IC50 (SK-HEP-1),IC50 (A549),IC50 (PANC-1),IC50 (HT-29),IC50 (BGC-823),IC50 (SK-OV-3),IC50 (KB),IC50 (786-O),IC50 (LoVo),IC50 (SW480),IC50 (CNE2),IC50 (MCF-7),IC50 (A375),IC50 (DLD-1),IC50 (SK-MES-1),Compound
4.66 µM,8.72 µM,8.02 µM,1.84 µM,4.35 µM,29.2 µM,3.45 µM,23.1 µM,1.56 µM,0.87 µM,3.14 µM,1.08 µM,0.48 µM,10.1 µM,9.23 µM,3.64 µM,2.51 µM,3.62 µM,"O=C(CCCCCNC(=O)c1[nH]c(-c2ccc(O)cc2)cc1-c1ccoc1)NO [Example 5, 3-(3-furyl)-N-(5-(hydroxycarbamoyl)pentyl)-5-(4-hydroxy-phenyl)-1H-pyrrole-2-carboxamide]"
3.46 µM,8.98 µM,7.89 µM,3.13 µM,5.39 µM,22.2 µM,3.64 µM,13.8 µM,3.15 µM,1.45 µM,2.7 µM,1.24 µM,1.08 µM,7.39 µM,7.07 µM,3.2 µM,3.5 µM,3.7 µM,"O=C(CCCCCNC(=O)c1[nH]c(-c2ccc(O)cc2)cc1-c1ccsc1)NO [Example 6, N-(5-(hydroxycarbamoyl)pentyl)-5-(4-hydroxyphenyl)-3-(3-thienyl)-1H-pyrrole-2-carboxamide]"
4.22 µM,11.8 µM,9.03 µM,6.04 µM,8.25 µM,27.7 µM,4.04 µM,11.7 µM,6.88 µM,2.23 µM,3.51 µM,2.69 µM,2.12 µM,10.1 µM,10.9 µM,4.07 µM,4.19 µM,4.8 µM,"O=C(CCCCCNC(=O)c1[nH]c(-c2ccc(O)cc2)cc1-c1ccccc1)NO [Example 2, N-(6-(hydroxyamino)-6-oxohexyl)-5-(4-hydroxyphenyl)-3-phenyl-1H-pyrrole-2-carboxamide]"
2.79 µM,5.67 µM,4.33 µM,4.03 µM,4.65 µM,6.04 µM,1.42 µM,2.16 µM,3.16 µM,0.95 µM,3.28 µM,1.4 µM,1.73 µM,2.77 µM,1.75 µM,2.05 µM,1.62 µM,2.88 µM,"O=C(CCCCCNC(=O)c1[nH]c(-c2ccccc2)cc1-c1ccc(O)cc1)NO [Example 1, N-(6-(hydroxyamino)-6-oxohexyl)-3-(4-hydroxyphenyl)-5-phenyl-1H-pyrrole-2-carboxamide]"
